The text below walks through data of patent publication US20060111363A1, “Treatment of uveal melanoma” (priority 2002, published 2006).

Assay [1] deals with uveal melanoma cell lines (OCM-1, OCM-3, 92-1 and mel 202). Put plainly: Survival / cell death of the four uveal melanoma cell lines. Format: cell-based, human. From the text: Cell culture: Four cell lines obtained from human primary uveal melanomas (OCM-1, OCM-3, 92-1 and mel 202) are used.
The next assay addresses c-kit (Homo sapiens, UniProt P10721). To be noted: treatment of uveal melanoma cell lines.
A further assay has as its system UM 92-1 cells. Particulars: runs 1 and 2.
Assay [2] has as its system BE skin melanoma cell line. To be noted: read-out: IC50 of Salt I on survival.
Description: (§1) Cell proliferation kit II is purchased from Roche Diagnostic GmbH (Mannheim, Germany). The test is based on a colorimetric change of the yellow tetrazolium slat XTT into orange formazan dye by the respiratory chain of viable cells (Roehm et al., 1991, J. Immunol. Assay, 142:257-265).
Assay [3] concerns DFB skin melanoma cell line. To be noted: read-out: IC50 of Salt I on survival.
Description: as §1
Another assay has as its system OCM-1 cells. Kind of assay: XTT cell viability, uveal melanoma cell line OCM-1. Particulars: for percentages of living cells as compared to 100% survival of untreated cells: runs 1 and 2. For orientation: Tetrazolium assays rely on reduction of a dye to a coloured formazan, in cell work by metabolically active cells.
The subject of another assay is OCM-3 cells. Put plainly: XTT cell viability, uveal melanoma cell line OCM-3. To be noted: for percentages of living cells as compared to 100% survival of untreated cells: runs 1 and 2.
The subject of another assay is mel 202 cells. Put plainly: XTT cell viability, uveal melanoma cell line mel 202. Particulars: for percentages of living cells as compared to 100% survival of untreated cells: runs 1 and 2.

For orientation: pIC50 means the negative decadic logarithm of the IC50, by convention in mol/L.

pIC50: −log10 of the molar value. “And” between values parts separate entries of the source, which are not always exact repeats. Equal entries are not always repeated. Where two headings read alike, the source gives them in different places. Bounds are passed on as bounds.

c-kit, sequence (P10721 26-976): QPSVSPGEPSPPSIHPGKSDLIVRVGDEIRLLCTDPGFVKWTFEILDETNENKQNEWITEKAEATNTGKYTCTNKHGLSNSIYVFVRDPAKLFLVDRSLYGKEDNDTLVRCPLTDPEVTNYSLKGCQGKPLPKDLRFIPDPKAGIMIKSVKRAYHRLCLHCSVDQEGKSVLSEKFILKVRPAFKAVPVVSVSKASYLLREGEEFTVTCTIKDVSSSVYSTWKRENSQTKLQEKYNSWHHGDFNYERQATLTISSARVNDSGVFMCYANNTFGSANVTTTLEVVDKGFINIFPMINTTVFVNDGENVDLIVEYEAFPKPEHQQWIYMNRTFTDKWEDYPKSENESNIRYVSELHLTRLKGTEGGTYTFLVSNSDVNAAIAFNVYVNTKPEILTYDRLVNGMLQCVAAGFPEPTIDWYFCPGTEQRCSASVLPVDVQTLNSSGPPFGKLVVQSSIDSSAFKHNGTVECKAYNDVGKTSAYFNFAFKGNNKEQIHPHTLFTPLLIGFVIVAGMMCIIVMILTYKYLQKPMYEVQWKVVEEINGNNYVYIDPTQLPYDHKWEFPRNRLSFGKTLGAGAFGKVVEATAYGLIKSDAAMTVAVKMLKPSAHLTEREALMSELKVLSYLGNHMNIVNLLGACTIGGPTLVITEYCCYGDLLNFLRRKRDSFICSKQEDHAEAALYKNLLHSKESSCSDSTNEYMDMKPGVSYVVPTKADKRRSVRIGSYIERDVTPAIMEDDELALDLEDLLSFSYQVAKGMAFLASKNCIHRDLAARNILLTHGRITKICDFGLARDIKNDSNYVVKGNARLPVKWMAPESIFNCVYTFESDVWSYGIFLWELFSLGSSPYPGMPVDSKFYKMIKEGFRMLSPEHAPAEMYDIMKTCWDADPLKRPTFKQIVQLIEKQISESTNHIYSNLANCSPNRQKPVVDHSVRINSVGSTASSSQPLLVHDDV
Description for OCM-1 cells: (§2) The test is based on a colorimetric change of the yellow tetrazolium slat XTT into orange formazan dye by the respiratory chain of viable cells (Roehm et al., 1991, J. Immunol. Assay, 142:257-265).
Description for OCM-3 cells: as §2
Description for UM 92-1 cells: as §2
Description for mel 202 cells: as §2

As to `Cc1ccc(NC(=O)c2ccc(CN3CCN(C)CC3)cc2)cc1Nc1nccc(-c2cccnc2)n1` [Compound I], the “cell death in vitro” value in assay [1] (four uveal melanoma cell lines) was “promotes in vitro cell death”. Further, on c-kit, the “effect on c-kit auto-phosphorylation” value is recorded as “blocks c-kit auto-phosphorylation”.
On to `CS(=O)(=O)O.Cc1ccc(NC(=O)c2ccc(CN3CCN(C)CC3)cc2)cc1Nc1nccc(-c2cccnc2)n1` [Salt I], for which the cell loss entry in assay [1] (uveal melanoma cell lines, even at low concentrations of Salt I) is “drastic cell loss”. For the same molecule, the “percentages of living cells as compared to 100% survival of untreated cells” value in the assay on UM 92-1 cells (UM 92-1, 24 h, 0.3 μM Salt I) is 98% and 91%; in the assay on UM 92-1 cells (UM 92-1, 24 h, 0.6 μM Salt I), 95%; in the assay on UM 92-1 cells (UM 92-1, 24 h, 5 μM Salt I), 83% and 75%; in the assay on UM 92-1 cells (UM 92-1, 24 h, 10 μM Salt I), 70% and 83%; in the assay on UM 92-1 cells (UM 92-1, 48 h, 0.3 μM Salt I), 85% and 90%; in the assay with UM 92-1 cells (UM 92-1, 48 h, 0.6 μM Salt I), 79% and 71%. For the same molecule, the “percentages of living cells as compared to 100% survival of untreated cells” value is 15% and 22% in the assay with UM 92-1 cells (UM 92-1, 48 h, 5 μM Salt I); 0% and 5% with UM 92-1 cells (UM 92-1, 48 h, 10 μM Salt I); 95% and 97% in the assay with OCM-1 cells (OCM-1, 24 h, 0.3 μM Salt I); 87% and 82% in the assay with OCM-1 cells (OCM-1, 24 h, 0.6 μM Salt I); 63% in the assay with OCM-1 cells (OCM-1, 24 h, 5 μM Salt I); 50% and 52% with OCM-1 cells (OCM-1, 24 h, 10 μM Salt I). The “percentages of living cells as compared to 100% survival of untreated cells” value is 62% and 59% in the assay with OCM-1 cells (OCM-1, 48 h, 0.3 μM Salt I); 40% and 37% with OCM-1 cells (OCM-1, 48 h, 0.6 μM Salt I); 27% and 23% with OCM-1 cells (OCM-1, 48 h, 5 μM Salt I); 23% and 29% in the assay on OCM-1 cells (OCM-1, 48 h, 10 μM Salt I); 100% and 97% in the assay with OCM-3 cells (OCM-3, 24 h, 0.3 μM Salt I); 100% and 105% in the assay with OCM-3 cells (OCM-3, 24 h, 0.6 μM Salt I). The “percentages of living cells as compared to 100% survival of untreated cells” value is 85% and 83% with OCM-3 cells (OCM-3, 24 h, 5 μM Salt I); 87% and 98% in the assay with OCM-3 cells (OCM-3, 24 h, 10 μM Salt I); 43% and 39% in the assay with OCM-3 cells (OCM-3, 48 h, 0.3 μM Salt I); 34% and 27% in the assay with OCM-3 cells (OCM-3, 48 h, 0.6 μM Salt I); 98% and 105% in the assay with mel 202 cells (mel 202, 24 h, 0.3 μM Salt I); 92% and 104% in the assay with mel 202 cells (mel 202, 24 h, 0.6 μM Salt I). Further, the “percentages of living cells as compared to 100% survival of untreated cells” value in the assay with mel 202 cells (mel 202, 24 h, 5 μM Salt I) is 97% and 101%; in the assay on mel 202 cells (mel 202, 24 h, 10 μM Salt I) it was 78% and 87%; in the assay on mel 202 cells (mel 202, 48 h, 0.3 μM Salt I) it was 23% and 14%; in the assay on mel 202 cells (mel 202, 48 h, 0.6 μM Salt I) it was 19% and 17%; in the assay on mel 202 cells (mel 202, 48 h, 5 μM Salt I) it was 23% and 15%. The pIC50 was under 4.70 in [2]; under 4.70 in assay [3]; 6.40 with OCM-1 cells (read-out: IC50 of Salt I on survival, uveal melanoma cell line OCM-1, Example 1: 48 hours exposure); 6.82 with OCM-3 cells (read-out: IC50 of Salt I on survival, uveal melanoma cell line OCM-3, Example 1: 48 hours exposure); 7.15 in the assay on mel 202 cells (read-out: IC50 of Salt I on survival, uveal melanoma cell line mel 202, Example 1: 48 hours exposure). Moreover, the “Salt I responsiveness” value in the assay with skin melanoma cell lines was “no respondent”.
